The record followed here is patent publication US20240327393A1 (SIRONAX LTD., priority 2021, published 2024).

The test concerns HT-1080 (ATCC, CCL-121) cells. Description: HT-1080 cell viability assay with ferroptosis inducer RSL3 (Cell Titer-Glo). In kind it is cell-based. The settings on record: Homo sapiens; HT-1080 cells treated with RSL3; 3-fold, 10-point dilution, 1.1 μM highest concentration; Table 2; read-out: EC50 (nM), ferroptosis inhibitory activity. The method in brief:
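HT-1080 cells (6000 per well) were cultured overnight at 37 °C, then co-treated with RSL3 and compound in a 3-fold, 10-point series topping at 1.1 μM. Viability was read by CellTiter-Glo luminescence and normalized to untreated controls. EC50 came from a sigmoidal non-linear regression fit.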
In general terms: In ATP-based viability assays light output follows the ATP content of the culture.
One may read the EC50 as the concentration needed to bring the measured effect to its halfway point. As for `O=C1c2ccc(Nc3ccc(N4CCC(C(F)(F)F)CC4)cc3)cc2CN1C1CC1` [Compound 209, 2-cyclopropyl-5-((4-(4-(trifluoromethyl)piperidin-1-yl)phenyl)amino) isoindolin-1-one], the concentration giving a half-maximal response (EC50) is 0.1 to 100 nM.

On to `CC(C)N1Cc2cc(Nc3ccc(N4CCC(C(F)(F)F)CC4)cc3)ccc2C1=O` [Compound 210, 2-isopropyl-5-((4-(4-(trifluoromethyl)piperidin-1-yl)phenyl)amino) isoindolin-1-one], for which the 50% effective concentration (EC50) fell in the range of 0.1 to 100 nM.

As for `CN1Cc2cc(Nc3ccc(N4CCC(C)(C)CC4)cc3)ccc2C1=O` [Compound 211, 5-((4-(4,4-dimethylpiperidin-1 yl)phenyl)amino)-2-methylisoindolin-1-one], the half-maximal effective concentration (EC50) is 0.1 to 100 nM.

With `O=C1c2ccc(Nc3ccc(N4CCC(C(F)(F)F)CC4)cc3)cc2CN1CC=C(F)F` [Compound 215, 2-(3,3-difluoroallyl)-5-((4-(4-(trifluoromethyl)piperidin-1-yl)phenyl)amino)isoindolin-1-one], the EC50 fell in the range of 0.1 to 100 nM.

Turning to `Cn1c(=O)c2ccc(Nc3ccc(N4CCC(C(F)(F)F)CC4)c(F)c3)cc2n1C(=O)OC(C)(C)C` [Compound 216, tert-butyl 6-((3-fluoro-4-(4-(trifluoromethyl)piperidin-1-yl)phenyl)amino)-2-methyl-3-oxo-2,3-dihydro-1H-indazole-1-carboxylate], the EC50 was in the range of 0.1 to 100 nM.

With `CN1Cc2cc(Nc3ccc(N4CCCCC4)cc3)ccc2C1=O` [Compound 217, 2-methyl-5-((4-(piperidin-1-yl)phenyl)amino)isoindolin-1-one], the EC50 is 0.1 to 100 nM.

`CCn1c2cc(Nc3ccc(N4CCC(C(F)(F)F)CC4)cc3)ccc2c(=O)n1C` [Compound 218, 1-ethyl-2-methyl-6-((4-(4-(trifluoromethyl)piperidin-1-yl)phenyl)amino)-1,2-dihydro-3H-indazol-3-one]: the EC50 lay in the range of 0.1 to 100 nM.

Consider `Cn1[nH]c2cc(Nc3ccc(N4CCC(C(F)(F)F)CC4)c(F)c3)ccc2c1=O` [Compound 219, 6-((3-fluoro-4-(4-(trifluoromethyl)piperidin-1-yl)phenyl)amino)-2-methyl-1,2-dihydro-3H-indazol-3-one], for which the EC50 lay within 0.1 to 100 nM.

As to `Cn1c(=O)n(C)c2cc(Nc3ccc(N4CCC(C(F)(F)F)CC4)cc3)ccc21` [Compound 220, 1,3-dimethyl-5-((4-(4-(trifluoromethyl)piperidin-1-yl)phenyl)amino)-1,3-dihydro-2H-benzo[d]imidazol-2-one], the half-maximal effective concentration (EC50) lay in the range of 0.1 to 100 nM.

As to `CC1CCC(N2Cc3cc(Nc4ccc(N5CCC(C(F)(F)F)CC5)cc4)ccc3C2=O)CC1` (stereo not shown) [Compound 221, 2-(4-methylcyclohexyl)-5-((4-(4-(trifluoromethyl)piperidin-1-yl)phenyl)amino)isoindolin-1-one], the EC50 lay within 0.1 to 100 nM.

For `CN1Cc2cc(Nc3ccc(N4CCC(C(F)(F)F)C4)cc3)ccc2C1=O` (stereo not shown) [Compound 222, 2-methyl-5-((4-(3-(trifluoromethyl)pyrrolidin-1-yl)phenyl)amino) isoindolin-1-one], the EC50 lay within 0.1 to 100 nM.

With `CN1Cc2cc(Nc3ccc(N4CC(C)(C)C4)cc3)ccc2C1=O` [Compound 223, 5-((4-(3,3-dimethylazetidin-1-yl)phenyl)amino)-2-methylisoindolin-1-one], the EC50 was 0.1 to 100 nM.

Consider `Cn1c(=O)c2ccc(Nc3ccc(N4CCC(C(F)(F)F)CC4)cc3)cc2n1C` [Compound 224, 1,2-dimethyl-6-((4-(4-(trifluoromethyl)piperidin-1-yl)phenyl)amino)-1,2-dihydro-3H-indazol-3-one], for which the half-maximal effective concentration (EC50) fell in the range of 0.1 to 100 nM.

Regarding `CN1Cc2cc(Nc3ccc(N4CCCCC4)c(Cl)c3)ccc2C1=O` [Compound 225, 5-((3-chloro-4-(piperidin-1-yl)phenyl)amino)-2-methylisoindolin-1-one], the EC50 fell in the range of 0.1 to 100 nM.

Turning to `Cc1cc(C)cc(Nc2ccc3c(c2)CN(C)C3=O)c1` [Compound 226, 5-((3,5-dimethylphenyl)amino)-2-methylisoindolin-1-one], the EC50 lay within 0.1 to 100 nM.

Regarding `CN1Cc2cc(Nc3ccc(N(C)C)cc3)ccc2C1=O` [Compound 227, 5-((4-(dimethylamino)phenyl)amino)-2-methylisoindolin-1-one], the EC50 was in the range of 0.1 to 100 nM.

Take `CN1Cc2cc(Nc3ccc(-c4ccccc4)cc3)ccc2C1=O` [Compound 228, 5-([1,1′-biphenyl]-4-ylamino)-2-methylisoindolin-1-one]: the EC50 fell in the range of 0.1 to 100 nM.

Regarding `CN1Cc2cc(Nc3ccc4c(c3)OCCO4)ccc2C1=O` [Compound 229, 5-((2,3-dihydrobenzo[b][1,4]dioxin-6-yl)amino)-2-methylisoindolin-1-one], the half-maximal effective concentration (EC50) lay within 0.1 to 100 nM.

With `Cc1ccc(Cl)c(Nc2ccc3c(c2)CN(C)C3=O)c1` [Compound 230, 5-((2-chloro-5-methylphenyl)amino)-2-methylisoindolin-1-one], the half-maximal effective concentration (EC50) was in the range of 0.1 to 100 nM.

Turning to `COc1ccc(C)cc1Nc1ccc2c(c1)CN(C)C2=O` [Compound 231, 5-((2-methoxy-5-methylphenyl)amino)-2-methylisoindolin-1-one], the concentration giving a half-maximal response (EC50) is 0.1 to 100 nM.

As to `CN1Cc2cc(Nc3ccc(Oc4ccc(Cl)cc4)cc3)ccc2C1=O` [Compound 232, 5-((4-(4-chlorophenoxy)phenyl)amino)-2-methylisoindolin-1-one], the EC50 fell in the range of 0.1 to 100 nM.

`CN1Cc2cc(Nc3ccc4nccn4c3)ccc2C1=O` [Compound 233, 5-(imidazo[1,2-a]pyridin-6-ylamino)-2-methylisoindolin-1-one]: the EC50 lay in the range of 100 to 1000 nM.

Turning to `CN1Cc2cc(Nc3cccc(N(C)C)c3)ccc2C1=O` [Compound 234, 5-((3-(dimethylamino)phenyl)amino)-2-methylisoindolin-1-one], the EC50 lay within 0.1 to 100 nM.

Regarding `CN1Cc2cc(Nc3ccc(N(C)C)nc3)ccc2C1=O` [Compound 235, 5-((6-(dimethylamino)pyridin-3-yl)amino)-2-methylisoindolin-1-one], the EC50 lay within 0.1 to 100 nM.

Consider `Cc1cc(C)c(Nc2ccc3c(c2)CN(C)C3=O)cn1` [Compound 236, 5-((4,6-dimethylpyridin-3-yl)amino)-2-methylisoindolin-1-one], for which the EC50 is 0.1 to 100 nM.

Take `COCCOc1ccc(Nc2ccc3c(c2)CN(C)C3=O)cc1` [Compound 237, 5-((4-(2-methoxyethoxy)phenyl)amino)-2-methylisoindolin-1-one]: the EC50 is 0.1 to 100 nM.

For the molecule `CN1Cc2cc(Nc3ccc(CN4CCCC4)cc3)ccc2C1=O` [Compound 238, 2-methyl-5-((4-(pyrrolidin-1-ylmethyl)phenyl)amino)isoindolin-1-one], the concentration giving a half-maximal response (EC50) lay within 1000 to 10000 nM.

As for `CC1CCCCN1c1ccc(Nc2ccc3c(c2)CN(C)C3=O)cc1` (stereo not shown) [Compound 240, 2-methyl-5-((4-(2-methylpiperidin-1-yl)phenyl)amino)isoindolin-1-one], the EC50 lay within 0.1 to 100 nM.

As to `CC1CCCN(c2ccc(Nc3ccc4c(c3)CN(C)C4=O)cc2)C1` (stereo not shown) [Compound 241, 2-methyl-5-((4-(3-methylpiperidin-1-yl)phenyl)amino)isoindolin-1-one], the EC50 lay in the range of 0.1 to 100 nM.

In the case of `CN1Cc2cc(Nc3ccc(N4CCCC(C(F)(F)F)C4)cc3)ccc2C1=O` (stereo not shown) [Compound 242, 2-methyl-5-((4-(3-(trifluoromethyl)piperidin-1-yl)phenyl)amino) isoindolin-1-one], the EC50 lay within 0.1 to 100 nM.

As to `COc1cc(Nc2ccc3c(c2)CN(C)C3=O)ccc1N1CCC(C(F)(F)F)CC1` [Compound 243, 5-((3-methoxy-4-(4-(trifluoromethyl)piperidin-1-yl)phenyl)amino)-2-methylisoindolin-1-one], the EC50 is 0.1 to 100 nM.

Regarding `CN1Cc2cc(Nc3ccc(N4CC5(CCC5)C4)cc3)ccc2C1=O` [Compound 244, 5-((4-(2-azaspiro[3.3]heptan-2-yl)phenyl)amino)-2-methylisoindolin-1-one], the EC50 lay within 0.1 to 100 nM.

For the molecule `CN1Cc2cc(Nc3ccc(N4C[C@H]5CC[C@@H]4C5)cc3)ccc2C1=O` [Compound 245, 5-((4-((1R,4S)-2-azabicyclo[2.2.1]heptan-2-yl)phenyl)amino)-2-methylisoindolin-1-one], the EC50 fell in the range of 0.1 to 100 nM.

With `CN1Cc2cc(Nc3ccc(N4CC5(CCCC5)C4)cc3)ccc2C1=O` [Compound 246, 5-((4-(2-azaspiro[3.4]octan-2-yl)phenyl)amino)-2-methylisoindolin-1-one], the 50% effective concentration (EC50) was in the range of 0.1 to 100 nM.

As to `CN1CCC(N2Cc3cc(Nc4ccc(N5CCC(C)(C)CC5)cc4)ccc3C2=O)CC1` [Compound 247, 5-((4-(4,4-dimethylpiperidin-1-yl)phenyl)amino)-2-(1-methylpiperidin-4-yl)isoindolin-1-one], the EC50 was 0.1 to 100 nM.

Regarding `Cn1cncc1CN1Cc2cc(Nc3ccc(N4CCC(C(F)(F)F)CC4)cc3)ccc2C1=O` [Compound 248, 2-((1-methyl-1H-imidazol-5-yl)methyl)-5-((4-(4-(trifluoromethyl)piperidin-1-yl)phenyl)amino)isoindolin-1-one], the EC50 lay within 0.1 to 100 nM.

Take `CC1CCN(c2ccc(Nc3ccc4c(c3)CN(C3CCN(C)CC3)C4=O)cc2)CC1` [Compound 249, 5-((4-(4-methylpiperidin-1-yl)phenyl)amino)-2-(1-methylpiperidin-4-yl) isoindolin-1-one]: the concentration for a half-maximal effect (EC50) lay in the range of 0.1 to 100 nM.

For the molecule `CC1CCN(c2ccc(Nc3ccc4c(=O)n(C)n(C)c4c3)cc2)CC1` [Compound 250, 1,2-dimethyl-6-((4-(4-methylpiperidin-1-yl)phenyl)amino)-1,2-dihydro-3H-indazol-3-one], the concentration for a half-maximal effect (EC50) was in the range of 0.1 to 100 nM.

On to `CC1CCN(c2ccc(Nc3ccc4c(=O)n(C)[nH]c4c3)cc2)CC1` [Compound 251, 2-methyl-6-((4-(4-methylpiperidin-1-yl)phenyl)amino)-1,2-dihydro-3H-ind azol-3-one], for which the EC50 was in the range of 0.1 to 100 nM.

As to `CCn1[nH]c2cc(Nc3ccc(N4CCC(C(F)(F)F)CC4)cc3)ccc2c1=O` [Compound 252, 2-ethyl-6-((4-(4-(trifluoromethyl)piperidin-1-yl)phenyl)amino)-1,2-dihydro-3H-indazol-3-one], the EC50 fell in the range of 0.1 to 100 nM.
